# Reference: patent publication US20230227484A1, “PYRIMIDINE COMPOUND AS AXL INHIBITOR” (NANJING CHIA TAI TIANQING PHARMACEUTICAL CO., LTD., priority 2020, published 2023)
# Tests used:
# AXL kinase = biological target: T1, AXL kinase (Homo sapiens, UniProt P30530); experiment: Inhibitory activity of compound against AXL kinase (HTRF KinEASE); assay type: biochemical; settings: AXL enzyme (Carna, 08-107), ATP 15 μM; "<" means below detection limit of the test
# T1 construct: purchased Carna 08-107
# T1 sequence (P30530 473-894 limits assumed): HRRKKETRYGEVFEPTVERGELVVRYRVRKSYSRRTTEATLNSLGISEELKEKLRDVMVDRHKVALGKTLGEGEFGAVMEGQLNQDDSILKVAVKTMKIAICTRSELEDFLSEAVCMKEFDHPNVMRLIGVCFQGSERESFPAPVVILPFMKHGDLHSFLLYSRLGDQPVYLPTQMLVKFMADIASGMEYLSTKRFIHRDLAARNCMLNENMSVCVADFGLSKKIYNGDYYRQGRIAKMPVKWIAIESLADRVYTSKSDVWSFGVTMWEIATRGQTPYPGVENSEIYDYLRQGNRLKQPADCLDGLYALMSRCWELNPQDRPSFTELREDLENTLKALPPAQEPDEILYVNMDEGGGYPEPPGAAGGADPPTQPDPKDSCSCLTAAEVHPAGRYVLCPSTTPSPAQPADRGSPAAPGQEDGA
# In short: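 AXL enzyme (final 0.016 ng/uL) was preincubated with compound (8 concentrations from 1 μM, ½ log steps) for 15 min at room temperature, then reacted with TK Substrate 3-biotin (final 1) and ATP (final 15 μM) for 45 min at 25° C. Phosphorylation was read by HTRF (TK antibody-cryptate, streptavidin-XL665, 1 h); IC50 from variable-slope dose-response fit.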
# [1] = test system: MV-4-11 (human myeloid monocytic leukemia cell line); experiment: Proliferation inhibition activity of compounds to MV-4-11 cells (CellTiter-Glo); assay type: cell-based; settings: MV4-11 cells, 72 h dosing
# In short: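 MV-4-11 cells, plated 24 h earlier, were exposed 72 h to compounds in 10-point 3-fold dilutions (0.5% DMSO final). Viability read by CellTiter-Glo luminescence; inhibition normalized to blank and untreated controls, IC50 from variable-slope log(inhibitor)-response fit.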
Compound,IC50 (AXL kinase),IC50 [1]
"CP(C)(=O)c1c(Nc2nc(Nc3ccc4c(c3)CC[C@@H](N3CCCC3)CC4)ncc2Cl)ccc2nccnc12 [Example 47, (S)-(6-((5-chloro-2-((7-(pyrrolidin-1-yl)-6,7,8,9-tetrahydro-5H-benzo[7]annulen-2-yl)amino)pyrimidin-4-yl)amino)quinoxalin-5-yl)dimethyl phosphine oxide]",1.72 nM,5.24 nM
"COCc1ccc(Nc2nc(Nc3ccc4c(c3)CC[C@@H](N3CCCC3)CC4)ncc2Cl)c(P(C)(C)=O)c1 [Example 115, (S)-(2-((5-chloro-2-((7-(pyrrolidin-1-yl)-6,7,8,9-tetrahydro-5H-benzo[7]annulen-2-yl)amino)pyrimidin-4-yl)amino)-5-(methoxymethyl)phenyl)dimethylphosphine oxide]",4.89 nM,6.97 nM
"CNC(=O)c1cc(F)ccc1Nc1nc(Nc2ccc3c(c2)CC[C@@H](N2CCCC2)CC3)ncc1Cl [Example 19, (S)-2-((5-chloro-2-((7-(pyrrolidin-1-yl)-6,7,8,9-tetrahydro-5H-benzo[7]annulen-2-yl)amino)pyrimidin-4-yl)amino)-5-fluoro-N-methylhenzamide]",0.11 nM,1.6 nM
"Cc1ccc(Nc2nc(Nc3ccc4c(c3)CC[C@@H](N3CCCC3)CC4)ncc2Cl)c(P(C)(C)=O)c1 [Example 53, (S)-(2-((5-chloro-2-((7-(pyrrolidin-1-yl)-6,7,8,9-tetrahydro-5H-benzo[7]annulen-2-yl)amino)pyrimidin-4-yl)amino)-5-methylphenyl) dimethyl phosphine oxide]",1.86 nM,6.61 nM
"CP(C)(=O)c1ccccc1Nc1nc(Nc2ccc3c(c2)CC[C@@H](N2CCCC2)CC3)ncc1Cl [Example 10, (S)-(2-((5-chloro-2-((7-(pyrrolidin-1-yl)-6,7,8,9-tetrahydro-5H-benzo[7]annulen-2-yl)amino)pyrimidin-4-yl)amino)phenyl)dimethyl phosphine oxide]",2.35 nM,5.49 nM
